Measured values from patent publication US6365602B1, “N-substituted naphthalene carboxamides as neurokinin-receptor antagonists” (Astra Zeneca AB, priority 1998, dated 2002).
Where a name gives a salt, the structure may show the parent alone.

Legend:
NK1 receptor = molecular target: T1, NK1 receptor (Oryctolagus cuniculus, UniProt G1SEI7); experiment: Rabbit Pulmonary Artery: NK1 in vitro functional assay (Test D); assay type: cell-based; conditions: relaxation to agonist ASMSP, negative log apparent dissociation constant, read-out: NK1pKb (converted)
T1 construct: Paired tissue segments of pulmonary artery excised from male New Zealand white rabbits; from tissue; host or cells: rabbit pulmonary artery segments
Source text: Rabbit Pulmonary Artery: NK1 in vitro functional assay (Test D)
The ability of a Compound of the invention to antagonize the action of the agonist Ac-[Arg^6, Sar^9, Met(O2)^11] […] Am. J. Physiol. 268: L152-L159, 1995.
Paired tissue segments of pulmonary artery excised from male New Zealand white rabbits are suspended between stainless steel stirrups for analyses of isometric relaxation under standard conditions in physiological salt solution (PSS) containing indomethacin (5 microM; to block cyclooxygenase) and propranolol (1 microM; to block β adrenergic receptors).
Initial tension placed on each tissue is 2 grams, which is maintained throughout the 1.0 hour equilibration period. Tissues are washed with PSS at 15 minute intervals. At the 30 and 45 minute wash the following treatments are added: Thiorphan (1 microM; to block E.C.3.4.24.11), ((3R)-3-[(1S)-1-(3,4-Dichlorophenyl)-3-(4-[(R or S)-2-methylsulfinyl-phenyl]-piperidino)propyl]-2-ethyl-2,3-dihydroisoindol-1-one) (0.03 microM; to block NK^2 receptors as described in: “Aharony D., et al. Pharmacological Characterization of ZD7944: A Novel, Potent and orally-Active Non-Peptide Neurokinin-A (NK-2) Receptor Antagonist Eur. Respir. J. 12 (Suppl. 12):20S, 1998”), and the given concentration of the Compound being tested. After equilibration, phenylephrine (3 microM) is added to produce steady-state contraction of the tissue and a dose relaxation curve to ASMSP is constructed. […]
For antagonists behaving in a noncompetitive manner, the percent inhibition of relaxation is determined at a given concentration of the antagonist. Percent inhibition is determined when a tested Compound produces a statistically significant reduction of the magnitude of maximum relaxation and is calculated as a percentage of the papaverine reference response For antagonists behaving competitively, potencies are determined by calculating the negative log value of the apparent dissociation constant (pKB) for each concentration tested. Statistical significance is determined when the P value is <0.05 using the Student's t-test for paired comparisons.

NK2 receptor = molecular target: T2, NK2 receptor (Oryctolagus cuniculus, UniProt P79218); experiment: NK2 in vitro functional assay (Test E), rabbit pulmonary artery; assay type: cell-based; conditions: contraction to agonist BANK, negative log apparent dissociation constant, read-out: NK2pKb (converted)
T2 construct: Left and right pulmonary arteries are excised from male New Zealand white rabbits; from tissue; host or cells: rabbit pulmonary artery ring segments, endothelium removed
T2 sequence (P79218 1-384): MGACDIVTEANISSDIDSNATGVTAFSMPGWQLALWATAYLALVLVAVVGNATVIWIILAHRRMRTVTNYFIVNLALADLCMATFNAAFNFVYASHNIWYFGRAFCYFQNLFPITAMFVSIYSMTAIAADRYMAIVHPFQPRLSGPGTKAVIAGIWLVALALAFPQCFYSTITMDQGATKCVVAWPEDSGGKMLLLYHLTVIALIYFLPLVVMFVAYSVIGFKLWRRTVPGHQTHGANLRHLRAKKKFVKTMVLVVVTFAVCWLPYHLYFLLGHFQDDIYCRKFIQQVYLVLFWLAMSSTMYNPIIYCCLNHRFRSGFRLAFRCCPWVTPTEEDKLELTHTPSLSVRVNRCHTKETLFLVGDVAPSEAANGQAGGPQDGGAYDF
Source text: NK2 in vitro functional assay (Test E)
The ability of a Compound of the invention to antagonize the action of the agonist [β-ala^8] […] Am. J. Physiol. […] Left and right pulmonary arteries are excised from male New Zealand white rabbits. The pulmonary arteries are cut into ring segments and the intimal surface rubbed gently to remove the endothelium. Paired tissue segments of pulmonary artery are suspended between stainless steel stirrups for analyses of isometric tension development under standard conditions in physiological salt solution (PSS) containing indomethacin, (5 microM; to inhibit cyclooxygenase).
Initial tension placed on each tissue is 2 grams, which is maintained throughout the 45 minute equilibration period. Tissues are washed with PSS at 15 minute intervals. After the 45 minute equilibration period, 3×10^−2M KCl is applied for 60 minutes to test tissue viability. The tissues are then washed extensively for 30 minutes. The concentration of the Compound being tested is then added for 30 minutes before constructing a cumulative concentration-response curve with BANK. The curve is considered complete when each tissue fails to contract further for 2 consecutively increasing BANK concentrations. BaCl2 (3×10^−2M ) is then added to produce a maximum reference contraction.
Percent inhibition is determined when a tested Compound produces a statistically significant reduction in the magnitude of maximum contraction and is calculated as a percentage of the BaCl2 reference response. For antagonists behaving competitively, potencies are determined by calculating the negative log value of the apparent dissociation constant (pKB) for each concentration tested. Statistical significance is determined when the P value is <0.05 using the Student's t-test for paired comparisons.
(§1) NK1 and NK2 in vivo functional assay (Test F)

NK1 receptors = molecular target: T3, NK1 receptors (Cavia porcellus, UniProt P30547); experiment: NK1 in vivo functional assay (Test F), ASMSP-induced bronchoconstriction; conditions: anesthetized guinea pig, agonist ASMSP, Dose Ratio of ED50 in presence/absence of antagonist
T3 construct: from tissue; host or cells: whole anesthetized guinea pig (airways, in vivo)
Protocol: as §1
(§2) Exp. Ther., 1993, Vol 267(3), pp 1168-1175. The assay is carried out as follows.
(§3) Compounds are tested in anesthetized guinea pigs pretreated with i.v. indomethacin (10 mg/kg, 20 min.), propranolol (0.5 mg/kg, 15 min.), and thiorphan (10 mg/kg, 10 min).
(§4) […] The agonists used in these studies are ASMSP (Ac-[Arg^6, Sar^9, Met(O2)^11]-SP(6-11)) and BANK (β-ala-8 NKA4-10).
(§5) Administered i.v., ASMSP is selective for NK1 receptors, and BANK is selective for NK2 receptors. Maximum response is defined as zero conductance (GL, 1/Rp). ED50 values are calculated (the dose of agonist resulting in a reduction of GL to 50% of baseline), and converted to the negative logarithm (−logED50). The ED50 values, obtained in the presence (P) and absence (A) of antagonist, are used to calculate a Dose Ratio (P/A), an expression of potency. Data are expressed as mean±SEM and statistical differences were determined using ANOVA/Tukey-Kramer and Student's t-test, with p<0.05 considered statistically significant.

NK2 receptors = molecular target: T4, NK2 receptors (Cavia porcellus, UniProt Q64077); experiment: NK2 in vivo functional assay (Test F), BANK-induced bronchoconstriction; conditions: anesthetized guinea pig, agonist BANK, Dose Ratio of ED50 in presence/absence of antagonist
T4 construct: from tissue; host or cells: whole anesthetized guinea pig (airways, in vivo)
T4 sequence (Q64077 1-402): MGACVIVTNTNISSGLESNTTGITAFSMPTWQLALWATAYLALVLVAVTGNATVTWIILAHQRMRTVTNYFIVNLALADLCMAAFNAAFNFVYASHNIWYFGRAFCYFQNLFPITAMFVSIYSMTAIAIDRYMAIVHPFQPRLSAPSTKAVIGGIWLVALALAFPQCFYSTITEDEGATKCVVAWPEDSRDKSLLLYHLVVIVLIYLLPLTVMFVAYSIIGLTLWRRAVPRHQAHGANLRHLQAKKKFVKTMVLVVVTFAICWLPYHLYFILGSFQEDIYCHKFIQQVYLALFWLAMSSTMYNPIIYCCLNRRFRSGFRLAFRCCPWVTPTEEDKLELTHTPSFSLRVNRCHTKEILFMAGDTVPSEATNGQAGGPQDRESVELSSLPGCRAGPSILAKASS
Protocol: as §1, §2, §3, §4, §5

T3 sequence (P30547 whole entry): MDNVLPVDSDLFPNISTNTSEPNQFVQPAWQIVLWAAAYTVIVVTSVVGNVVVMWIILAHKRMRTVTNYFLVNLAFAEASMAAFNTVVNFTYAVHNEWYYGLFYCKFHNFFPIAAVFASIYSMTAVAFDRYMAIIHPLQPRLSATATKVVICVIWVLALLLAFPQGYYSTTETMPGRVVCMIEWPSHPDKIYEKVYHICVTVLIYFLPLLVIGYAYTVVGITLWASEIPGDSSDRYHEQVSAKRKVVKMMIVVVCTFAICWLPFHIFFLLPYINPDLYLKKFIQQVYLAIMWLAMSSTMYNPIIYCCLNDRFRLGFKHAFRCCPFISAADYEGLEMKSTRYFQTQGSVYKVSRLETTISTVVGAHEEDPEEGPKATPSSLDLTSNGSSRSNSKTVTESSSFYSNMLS
T1 sequence (G1SEI7 1-407): as the sequence (P30547 whole entry) above, with G176S, S186E, A329G, F342L, D368E, P369A, T376N, V395M, S399F counted along it

| melting point | Kd (NK1 receptor) | Kd (NK2 receptor) | NK1 P/A (NK1 receptors; 2 hr) | NK2 P/A (NK2 receptors; 2 hr) | NK1 P/A (NK1 receptors; 1 hr) | NK2 P/A (NK2 receptors; 1 hr) | Structure (SMILES) |
| --- | --- | --- | --- | --- | --- | --- | --- |
| 175 to 180 °C | – | – | – | – | – | – | CN(C[C@@H](CCN1CCC(c2ccc([S+](C)[O-])c(F)c2)CC1)c1ccc(Cl)c(Cl)c1)C(=O)c1cc(C#N)cc2ccccc12 (stereo partly drawn) (as salt: hydrochloride) [Example 60, N-[(S)-2-(3,4-Dichlorophenyl)-4-[4-[3-fluoro-4-methylsulfinylphenyl]-1-piperidinyl]butyl]-N-methyl-3-cyano-1-naphthamide] |
| – | 1.02 nM | 5.5 nM | 32.5 (2 hr) | 21.4 (2 hr) | – | – | CN(C[C@@H](CCN1CCC(c2ccccc2[S@+](C)[O-])CC1)c1ccc(Cl)c(Cl)c1)C(=O)c1cc(C#N)cc2ccccc12 [Example 1, N-[(S)-2-(3,4-Dichlorophenyl)-4-[4-[(S)-2-methylsulfinylphenyl]-1-piperidinyl]butyl]-N-methyl-3-cyano-1-naphthamide] |
| – | 7.41 nM | 13.8 nM | – | – | 45.0 (1 hr) | 20.6 (1 hr) | CN(C[C@@H](CCN1CCC(N2CCCNC2=O)CC1)c1ccc(Cl)c(Cl)c1)C(=O)c1cc(C#N)cc2ccccc12 [Example 36, N-[(S)-2-(3,4-Dichlorophenyl)-4-[4-[tetrahydro-2-oxo-1(2H)-pyrimidinyl]-1-piperidinyl]-butyl]-N-methyl-3-cyano-1-naphthamide Citrate Hydrate (1:1:1.5)] |

Second part, the compound before the results:

| Structure (SMILES) | melting point | Kd (NK1 receptor) | Kd (NK2 receptor) | NK1 P/A (NK1 receptors; 2 hr) | NK2 P/A (NK2 receptors; 2 hr) | NK1 P/A (NK1 receptors; 1 hr) | NK2 P/A (NK2 receptors; 1 hr) |
| --- | --- | --- | --- | --- | --- | --- | --- |
| CCN(C[C@@H](CCN1CCC(c2ccccc2[S@+](C)[O-])CC1)c1ccc(Cl)c(Cl)c1)C(=O)c1cc(C#N)cc2ccccc12 [Example 69, N-[(S)-2-(3,4-Dichlorophenyl)-4-[4-[(S)-2-methylsulfinylphenyl]-1-piperidinyl]butyl]-N-ethyl-3-cyano-1-naphthamide] | 115 to 118 °C (dec.) | – | – | – | – | – | – |
| COc1ccc(C2CCN(CC[C@H](CN(C)C(=O)c3cc(C#N)cc4ccccc34)c3ccc(Cl)c(Cl)c3)CC2)c([S@+](C)[O-])c1.O=C(O)CC(O)(CC(=O)O)C(=O)O [Example 2, N-[(S)-2-(3,4-Dichlorophenyl)-4-[4-{4-methoxy-(S)-2-methylsulfinylphenyl}-1-piperidinyl]butyl]-N-methyl-3-cyano-1-naphthamide Citrate] | – | 7.94 nM | 2 nM | 25.0 (2 hr) | 83.0 (2 hr) | – | – |
